Experimental data from PubChem BioAssay AID248 (DTP/NCI, 2004).
Where “and” joins values, the source holds several entries; their conditions need not be identical. Identical values can stand only once. Toxic doses and inconclusive results are not listed. No stated cut-off is given here; in the data, active means T/C of 150% or more; inactive means T/C below 125%.

Test system: L1210 leukemia ip in BDF1 mice, survival T/C
Test: NCI In Vivo Anticancer Drug Screen. Data for tumor model L1210 Leukemia (intraperitoneal) in B6D2F1 (BDF1) mice
Details: endpoint: mean survival time, higher = longer survival
Method in brief: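 Antitumor effect is assessed in tumor-bearing animals. Survival in the compound arm is compared with a vehicle-dosed control arm and expressed as their quotient.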

[1] = dose: 100.0 mg/kg/injection, schedule: Q04DX003 (ip), vehicle: saline
[2] = dose: 200.0 mg/kg/injection, schedule: Q04DX003 (ip), vehicle: saline
[3] = dose: 400.0 mg/kg/injection, schedule: Q04DX003 (ip), vehicle: saline
[4] = dose: 100.0 mg/kg/injection, schedule: Q01DX001 (ip), vehicle: Klucel (hydroxypropylcellulose) (HPC)
[5] = dose: 100.0 mg/kg/injection, schedule: Q04DX003 (ip), vehicle: Klucel (hydroxypropylcellulose) (HPC)
[6] = dose: 200.0 mg/kg/injection, schedule: Q01DX001 (ip), vehicle: Klucel (hydroxypropylcellulose) (HPC)
[7] = dose: 200.0 mg/kg/injection, schedule: Q04DX003 (ip), vehicle: Klucel (hydroxypropylcellulose) (HPC)
[8] = dose: 400.0 mg/kg/injection, schedule: Q01DX001 (ip), vehicle: Klucel (hydroxypropylcellulose) (HPC)
[9] = dose: 400.0 mg/kg/injection, schedule: Q04DX003 (ip), vehicle: Klucel (hydroxypropylcellulose) (HPC)
[10] = dose: 100.0 mg/kg/injection, schedule: Q01DX001 (ip), vehicle: saline
[11] = dose: 200.0 mg/kg/injection, schedule: Q01DX001 (ip), vehicle: saline
[12] = dose: 400.0 mg/kg/injection, schedule: Q01DX001 (ip), vehicle: saline
[13] = dose: 50.0 mg/kg/injection, schedule: Q01DX001 (ip), vehicle: Klucel (hydroxypropylcellulose) (HPC)
[14] = dose: 50.0 mg/kg/injection, schedule: Q01DX009 (ip), vehicle: Klucel (hydroxypropylcellulose) (HPC)
[15] = dose: 100.0 mg/kg/injection, schedule: Q04DX002 (ip), vehicle: Klucel (hydroxypropylcellulose) (HPC)
[16] = dose: 200.0 mg/kg/injection, schedule: Q04DX002 (ip), vehicle: Klucel (hydroxypropylcellulose) (HPC)
[17] = dose: 100.0 mg/kg/injection, schedule: Q01DX009 (ip), vehicle: saline
[18] = dose: 200.0 mg/kg/injection, schedule: Q01DX009 (ip), vehicle: saline
[19] = dose: 400.0 mg/kg/injection, schedule: Q01DX009 (ip), vehicle: saline
[20] = dose: 100.0 mg/kg/injection, schedule: Q04DX003 (ip), vehicle: saline with Tween-80
[21] = dose: 200.0 mg/kg/injection, schedule: Q04DX003 (ip), vehicle: saline with Tween-80
[22] = dose: 400.0 mg/kg/injection, schedule: Q04DX003 (ip), vehicle: saline with Tween-80
[23] = dose: 100.0 mg/kg/injection, schedule: Q01DX009 (ip), vehicle: Klucel (hydroxypropylcellulose) (HPC)
[24] = dose: 200.0 mg/kg/injection, schedule: Q01DX009 (ip), vehicle: Klucel (hydroxypropylcellulose) (HPC)
[25] = dose: 400.0 mg/kg/injection, schedule: Q01DX009 (ip), vehicle: Klucel (hydroxypropylcellulose) (HPC)

Measured: T/C

CC(=O)Nc1ccc(S(=O)(=O)Cl)cc1
inactive: dose: 75.0 mg/kg/injection, schedule: Q01DX001 (ip), vehicle: other 94 % of control | [1] 108 % of control | dose: 150.0 mg/kg/injection, schedule: Q01DX001 (ip), vehicle: other 88 % of control | [2] 92 % of control | [3] 90 % of control

CCc1c(N)nc(=O)[nH]c1C(=O)O
inactive: [4] 115 % of control | [5] 96 % of control | [6] 118 % of control | [7] 100 % of control | [8] 117 % of control | [9] 104 % of control

CCC(C)(C)C(=O)Nc1cccc(OC(=O)NC)c1
inactive: dose: 400.0 mg/kg/injection, schedule: Q01DX009 (ip), vehicle: saline with Tween-80 93 % of control

O=C(O)c1[nH]c2c(=O)[nH]c(=O)[nH]c2c1Br
inactive: [10] 102 % of control | [11] 100 % of control | [12] 100 % of control

Cc1cc(=O)[nH]c2c(O)cc([N+](=O)[O-])cc12
inactive: [13] 111 % of control | [4] 100 % of control | [6] 97 % of control

S=C(Nc1ccccc1)NC1CC2C=CC1CC2 (configuration not stated)
inactive: [10] 90 % of control | [11] 92 % of control | [12] 113 % of control

CN(C)C(=O)Nc1ccc2c(c1)OCO2
inactive: dose: 75.0 mg/kg/injection, schedule: Q01DX009 (ip), vehicle: Klucel (hydroxypropylcellulose) (HPC) 107 % of control | [4] 111 % of control | dose: 150.0 mg/kg/injection, schedule: Q01DX009 (ip), vehicle: Klucel (hydroxypropylcellulose) (HPC) 110 % of control | [6] 104 % of control | dose: 300.0 mg/kg/injection, schedule: Q01DX009 (ip), vehicle: Klucel (hydroxypropylcellulose) (HPC) 102 % of control

O=C(CBr)c1ccc(Br)cc1
inactive: dose: 12.5 mg/kg/injection, schedule: Q01DX009 (ip), vehicle: Klucel (hydroxypropylcellulose) (HPC) 97 % of control | dose: 25.0 mg/kg/injection, schedule: Q01DX009 (ip), vehicle: Klucel (hydroxypropylcellulose) (HPC) 97 % of control | dose: 25.0 mg/kg/injection, schedule: Q04DX002 (ip), vehicle: Klucel (hydroxypropylcellulose) (HPC) 100 % of control | [14] 93 % of control | dose: 50.0 mg/kg/injection, schedule: Q04DX002 (ip), vehicle: Klucel (hydroxypropylcellulose) (HPC) 89 % of control | [15] 96 % of control and 107 % of control | [16] 111 % of control | dose: 400.0 mg/kg/injection, schedule: Q04DX002 (ip), vehicle: Klucel (hydroxypropylcellulose) (HPC) 92 % of control

O=CNC(O)C(Cl)(Cl)Cl (configuration not stated)
inactive: [17] 98 % of control | [1] 109 % of control | [18] 89 % of control | [2] 95 % of control | [19] 89 % of control | [3] 95 % of control

COC(=O)C1C=C2c3cccc4[nH]cc(c34)CC2N(C)C1 (configuration not stated)
inactive: [17] 105 % of control

NC(=O)Cn1cnc2c(N)ncnc21
inactive: [20] 95 % of control | [21] 95 % of control | [22] 101 % of control

CCOC(=O)CNCc1cccnc1
inactive: [17] 97 % of control | [1] 95 % of control | [18] 94 % of control | [2] 87 % of control | [19] 95 % of control | [3] 102 % of control

CCOC(=O)Cc1nnn(C)n1
inactive: [1] 93 % of control | [2] 90 % of control

C/C=C1/CN2C3CC1C1(C(=O)OC)C2CC2(c4ccccc4N(C)C32)C1O (configuration not stated)
inactive: [14] 94 % of control | [4] 105 % of control | [23] 98 % of control | [6] 97 % of control | [24] 96 % of control | [8] 93 % of control

O=C1CC(=O)NC(=O)N1
inactive: [20] 91 % of control | [21] 93 % of control | [22] 91 % of control

CCOC(=O)CN1CCN2C(=O)N(CC)CCC2C1 (configuration not stated)
inactive: [1] 95 % of control | [2] 90 % of control | [3] 101 % of control

OCC(O)C(O)C(O)CN=Cc1ccccc1O (configuration not stated)
inactive: dose: 75.0 mg/kg/injection, schedule: Q04DX002 (ip), vehicle: saline with Tween-80 106 % of control | dose: 150.0 mg/kg/injection, schedule: Q04DX002 (ip), vehicle: saline with Tween-80 98 % of control | dose: 300.0 mg/kg/injection, schedule: Q04DX002 (ip), vehicle: saline with Tween-80 109 % of control

CC1(C)N=C(N)N=C(N)N1c1ccc(CCNC(=O)c2ccc(S(=O)(=O)F)cc2)cc1
inactive: dose: 25.0 mg/kg/injection, schedule: Q01DX001 (ip), vehicle: Klucel (hydroxypropylcellulose) (HPC) 90 % of control | [13] 96 % of control | [4] 90 % of control

O=C(c1ccccc1)C1C(c2ccccc2)N1C1CCCCC1 (configuration not stated)
inactive: [14] 95 % of control | [23] 97 % of control and 103 % of control | [5] 96 % of control and 100 % of control | [24] 95 % of control and 89 % of control | [7] 93 % of control and 88 % of control | [25] 90 % of control and 91 % of control | [9] 95 % of control and 100 % of control

NC(CCl)=NCC12CC3CC(CC(C3)C1)C2
inactive: [15] 98 % of control | [16] 104 % of control and 87 % of control

O=CC(=O)Nc1ccc(C(=O)O)c(O)c1
inactive: [23] 95 % of control | [24] 95 % of control | [25] 98 % of control
